Reference: patent US20250002464A1, “NOVEL COMPOUND AND PHARMACEUTICAL COMPOSITION COMPRISING SAME” (SAPIENSBIO INC., priority 2021, published 2025)

Legend:
[1] = tested on: COL1A1; assay: COL1A1 protein level by Western blotting in TGF-β1-treated fibroblasts; assay type: cell-based; settings: MRC5 cells, 5, 10, or 20 μM, TGF-β1 (10 ng/mL), 70 hours
From the text: (§1) α-SMA protein is a marker of activated myofibroblasts, which are the main effector cells of fibrosis, myofibroblasts with increased α-SMA expression are known to produce a fibrotic protein such as collagen type 1 and cause fibrosis. Therefore, in this example, it was confirmed whether the compound according to the present invention is effective in inhibiting fibrosis by reducing the expression of α-SMA and other pro-fibrotic factors (COL1A1, COL4A1, fibronectin, and p-SMAD2).
(§2) Specifically, lung tissue-derived fibroblasts, MRC5 cells, were treated with Compound 59 according to the present invention (5, 10, or 20 μM), nintedanib (1 μM), or DMSO, and then 2 hours later, treated with TGF-β1 (10 ng/mL). After 70 hours, the cells were lysed in RIPA buffer (50 mM Tris-HCl, 150 mM NaCl, 1% NP-40, 0.5% sodium deoxycholate, 0.1% SDS, protease inhibitor & phosphatase inhibitor cocktail, pH 8.0), which had been cooled to 4° C. The cell lysate was centrifuged at 4° C. at a speed of 15,000×g for 30 minutes, and then the supernatant was collected. After matching the total amount of proteins in the supernatant of each sample (15 to 30 μg), the proteins were separated according to molecular weight using SDS polyacrylamide gel electrophoresis (SDS-PAGE). […]

[2] = tested on: α-SMA; assay: α-SMA protein level by Western blotting in TGF-β1-treated fibroblasts; assay type: cell-based; settings: MRC5 cells, 5, 10, or 20 μM, TGF-β1 (10 ng/mL), 70 hours
From the text: as §1, §2

[3] = tested on: Arp2/3 complex; assay: in vitro actin polymerization test (pyrene-labeled actin); assay type: biochemical; settings: 10 μM, VCA domain protein, spherical actin monomers, 1 hour, compared to control (FIG. 1)
Procedure: Although actin polymerization, which is a process of forming actin filaments from actin monomers, is involved in controlling cell movement, tissue fibrosis may be caused by the promotion of excessive α-SMA expression and induction of myofibroblast activation. Accordingly, an in vitro actin polymerization test was performed to confirm the actin polymerization controlling function of the compounds according to the present invention.
Specifically, a pyrene-labeled spherical actin stock was diluted with general actin buffer (5 mM Tris-HCl pH 8.0, 0.2 mM CaCl2)) and incubated at 4° C. for 1 hour, thereby producing spherical actin monomers. Afterward, 80% of a supernatant was recovered by centrifugation at 20,000×g and 4° C. for 3 hours, and 0.1 mg/mL spherical actin monomers were prepared. The Arp2/3 complex, the VCA domain protein, and Compound 12, 38, or 59 (10 μM each) according to the present invention were added to the spherical actin monomers and an actin polymerization buffer and reacted at room temperature for 1 hour. The increased fluorescence intensity during the reaction from the spherical actin monomer to a fibrous actin polymer was measured using a microplate reader at an excitation wavelength of 360 nm and an emission wavelength of 407 nm. The degree of actin polymerization was shown relative to the maximum polymerization rate (arbitrary units).

[4] = tested on: COL4A1; assay: COL4A1 protein level by Western blotting in TGF-β1-treated fibroblasts; assay type: cell-based; settings: MRC5 cells, 5, 10, or 20 μM, TGF-β1 (10 ng/mL), 70 hours
From the text: as §1, §2

[5] = tested on: α-SMA; assay: α-SMA expression inhibitory ability in MRC5 cell line (Western blotting); assay type: cell-based; settings: TGF-β1 (10 ng/mL), 72 hours, relative to TGF-β1 only
How it was run: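 MRC5 cells given compound at 10 μM, then TGF-β1 (10 ng/mL) 2 h later; after 72 h, lysates probed for α-SMA by Western blot. Inhibition is α-SMA level relative to TGF-β1 alone, binned A ≥70%, B 50–<70%, C <50%.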

[6] = tested on: fibronectin; assay: fibronectin protein level by Western blotting in TGF-β1-treated fibroblasts; assay type: cell-based; settings: MRC5 cells, 5, 10, or 20 μM, TGF-β1 (10 ng/mL), 70 hours
From the text: as §1, §2

[7] = tested on: MCR5 cell line; assay: intracellular F-actin polymerization, TGF-β1-treated cells, confocal microscope; assay type: cell-based; settings: 10 μM along with TGF-β1 (10 ng/mL), 48 hours (FIGS. 2A and 2B)
From the text: F-actin polymerization activates transcription factors involved in the activation of myofibroblasts and the initiation of fibrosis. Accordingly, when F-actin polymerization decreases, the expression of fibrosis-causing genes by the transcription factors may be inhibited, and the activation and fibrosis of muscle fiber cells may be reduced. Therefore, in this example, it was confirmed whether the compounds according to the present invention are effective in inhibiting F-actin polymerization.
An MCR5 cell line was dispensed at 1×10^3 cells/well in a 96-well black micro plate and cultured in Medium 1 (10% FBS-containing MEM) in 5% CO2 at 37° C. for 24 hours. Subsequently, the above medium was exchanged with Medium 2 (0.5% FBS-containing MEM), a compound of the present invention was treated at 10 μM along with TGF-β1 (10 ng/mL), and the cells were incubated for 48 hours. After removing the entire batch, the cells were treated with each of CellMask Orange Actin Tracking Stain (Invitrogen) and NucBlue Live ReadyProbes (Invitrogen) to performing F-actin and cell nucleus staining in accordance with the manufacturer's recommended conditions. Cells treated with the staining reagents were incubated for 30 minutes at 5% CO2 and 37° C. while blocking light. After completing the incubation, the staining reagents were removed, fresh Medium 1 was added to the cells at 100 μL/well, and then the cells were incubated for 5 minutes, followed by removal of the medium. The above process was repeated three times. To observe the stained F-actin and cell nucleus, PBS was added to the plate at 100 μL/well, and then the cells were photographed using a confocal microscope (Leica) and analyzed using Image J software.

[8] = tested on: p-SMAD2; assay: phosphorylation of SMAD2 by Western blotting in TGF-β1-treated fibroblasts; assay type: cell-based; settings: TGF-β1 (10 ng/mL), 70 hours
From the text: as §1, §2

SMILES: CC(C(=O)N1CCN(c2ccccc2)c2ccccc21)N1CCCC[C@H]1C (stereo partly drawn) [Compound 59, 2-((R)-2-methylpiperidin-1-yl)-1-(4-phenyl-3,4-dihydroquinoxaline-1(2H)-yl)propan-1-one phosphate]
- COL1A1 protein level [1]: greatly decreased
- α-SMA protein level [2]: significantly decreased
- actin polymerization activity (maximum polymerization rate) [3]: decreased compared to the control
- COL4A1 protein level [4]: greatly decreased
- inhibition at 10 µM [5]: < 50%
- fibronectin protein level [6]: greatly decreased
- intracellular F-actin polymerization [7]: significantly reduced
- phosphorylation of SMAD2 protein ([8]; MRC5 cells, 5, 10, or 20 μM): decreased in a concentration-dependent manner
- phosphorylation of SMAD2 protein compared to nintedanib ([8]; MRC5 cells, compared to nintedanib (1 μM)): reduced to a greater extent
